Test results reported in ChEMBL document CHEMBL1131027, “Enhancement of oral absorption in selective 5-HT1D receptor agonists: fluorinated 3-[3-(piperidin-1-yl)propyl]indoles” (J Med Chem, 1998).

Tests used:
[1] = target: Serotonin 1 receptors; 5-HT1B & 5-HT1D (Homo sapiens) (UniProt P28222+P28221); assay: Relative binding to serotonin 5-HT1D and 5-HT1B receptors; format: protein assay
[2] = target: T1, 5-hydroxytryptamine receptor 1D (Homo sapiens, UniProt P28221); assay: Percent efficacy relative to 5-HT treatment of CHO cells expressing 5-HT 1d receptor; format: functional, cell-based
[3] = target: T1, 5-hydroxytryptamine receptor 1D; assay: Agonist induced [35S]GTP-gamma-S, binding in CHO cells expressing 5-HT 1d receptor; format: functional, cell-based
[4] = target: T1, 5-hydroxytryptamine receptor 1D; assay: Displacement of [3H]5-HT from human 5-hydroxytryptamine 1D receptor expressed in CHO cells; format: cell-based
Rattus norvegicus [5] = assay: Concentration of compound in rat plasma obtained from hepatic portal vein(hpv) blood samples following peroral administration at 3 mg/kg.; format: functional, organism-based; parameters: dose 3 mg/kg
[6] = The ionization constant (pKa) for the compound measured potentiometrically
Rattus norvegicus [7] = assay: Concentration of compound in rat plasma obtained from cardiac (systemic) blood samples following peroral administration at 3 mg/kg.; format: functional, organism-based; parameters: dose 3 mg/kg

T1 sequence (P28221 whole entry): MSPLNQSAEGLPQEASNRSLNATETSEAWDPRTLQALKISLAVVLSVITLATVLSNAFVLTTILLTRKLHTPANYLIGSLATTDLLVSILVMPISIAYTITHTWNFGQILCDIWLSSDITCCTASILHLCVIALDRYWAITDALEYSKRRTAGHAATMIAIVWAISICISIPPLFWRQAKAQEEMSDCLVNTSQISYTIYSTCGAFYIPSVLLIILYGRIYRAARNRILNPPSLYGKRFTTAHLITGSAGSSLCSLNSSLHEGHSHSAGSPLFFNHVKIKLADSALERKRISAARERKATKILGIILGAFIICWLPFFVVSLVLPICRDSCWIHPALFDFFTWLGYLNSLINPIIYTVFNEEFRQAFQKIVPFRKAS

Selectivity [1]	Efficacy [2]	EC50 [3]	IC50 [4]	pKa [6]	SMILES	Concentration (Rattus norvegicus [5])	Concentration (Rattus norvegicus [7])
30	71%	5.1 nM	0.75 nM	–	Fc1cccc(CCC2(F)CCN(CCCc3c[nH]c4ccc(-n5cnnc5)cc34)CC2)c1	–	–
65	61%	11 nM	0.95 nM	8.7	FC(Cc1c[nH]c2ccc(-n3cnnc3)cc12)CN1CCC(Cc2ccccc2)CC1 (stereo unspecified)	781 ng/mL	196 ng/mL
66	94%	–	–	–	CN(Cc1ccccc1)C1CCN(CCCc2c[nH]c3ccc(-n4cnnc4)cc23)CC1	4 ng/mL	< 1 ng/mL
230	104%	18 nM	5.4 nM	–	CN(Cc1ccccc1)C1CCN(CC(F)Cc2c[nH]c3ccc(-n4cnnc4)cc23)CC1 (stereo unspecified)	57 ng/mL	2 ng/mL
16	58%	0.5 nM	1 nM	8.8	FC1(Cc2ccccc2)CCN(CCCc2c[nH]c3ccc(-n4cnnc4)cc23)CC1	570 ng/mL	52 ng/mL
40	–	–	–	8.2	c1ccc(CN2CCN(CCCc3c[nH]c4ccc(-n5cnnc5)cc34)CC2)cc1	178 ng/mL	42 ng/mL
225	95%	1.7 nM	1.4 nM	–	OC[C@H](NC1CCN(CC(F)Cc2c[nH]c3ccc(-n4cnnc4)cc23)CC1)c1ccc(F)cc1 (stereo partly specified)	5 ng/mL	< 1 ng/mL
125	–	–	–	–	Fc1cccc(CCN2CCN(CCCc3c[nH]c4ccc(-n5cnnc5)cc34)CC2)c1	–	–
18	–	–	13 nM	8	CN(Cc1ccccc1)[C@@H]1CCN(CCCc2c[nH]c3ccc(-n4cnnc4)cc23)C[C@@H]1F	216 ng/mL	2 ng/mL
57	62%	0.6 nM	0.35 nM	9.7	c1ccc(CC2CCN(CCCc3c[nH]c4ccc(-n5cnnc5)cc34)CC2)cc1	25 ng/mL	< 2 ng/mL
324	98%	4.4 nM	3.7 nM	–	Fc1cccc(CCN2CCN(CC(F)Cc3c[nH]c4ccc(-n5cnnc5)cc34)CC2)c1 (stereo unspecified)	–	–
6	–	–	2.2 nM	–	CN(Cc1ccccc1)[C@H]1CCN(CCCc2c[nH]c3ccc(-n4cnnc4)cc23)C[C@H]1F	–	–
206	104%	–	–	–	OC[C@H](NC1CCN(CCCc2c[nH]c3ccc(-n4cnnc4)cc23)CC1)c1ccc(F)cc1	< 2 ng/mL	< 2 ng/mL
